“Also recorded” adds a separate entry of the source. Read-outs that look alike come from different tables or passages of the source.
What was measured:
mouse lungs = experiment: Isolated perfused and ventilated mouse lung, PLY-induced permeability (ex vivo); set-up: species or system mouse (C57BL/6 N); conditions: VT 50 or 100 ng/ml, 15 minutes before PLY 1.4 μg/ml, BAL 30 minutes after PLY, HSA 0.04% in perfusate, n = 6-8
Experimental: Mouse lungs were prepared as described previously. Briefly, anesthetized mice were tracheotomized and ventilated. After sternotomy and cannulation of the left atrium and pulmonary artery, lungs were perfused with 37 °C sterile Krebs-Henseleit hydroxyethyl-amylopectin buffer (1 ml/minute) and ventilated by negative pressure (Pexp −4.5, Pins −9.0 cmH2O) in a humidified chamber. After a 20-minute steady state, continuous infusion of VT (50 or 100 ng/ml) or PBS was commenced. Five minutes later, human serum albumin (HSA) was admixed to the perfusate (0.04%) for permeability quantification. Ten minutes thereafter, 1.4 μg/ml PLY was infused into the pulmonary artery for 1 minute. Bronchoalveolar lavage (BAL) was performed 30 minutes after PLY application, and HSA concentration was measured in bronchoalveolar fluid (BALF).

[1] = tested on: human pulmonary microvascular endothelial cells (hPMVEC); experiment: Immunofluorescence staining (VE-cadherin, actin) of human pulmonary microvascular endothelial cells; format: cell-based; conditions: VT 300 ng/ml
Experimental: Human pulmonary microvascular endothelial cells (hPMVEC; PromoCell, Heidelberg, Germany), used at passages 4–6, were grown to confluence on glass slides, incubated with VT (300 ng/ml) or sterile PBS as a control for 90 minutes and then stimulated with LPS (0.1 μg/ml) from Escherichia coli (Sigma-Aldrich, Steinheim, Germany), PLY (0.25, 0.5, 0.75 μg/ml), or PBS. After 30 minutes, cells were fixed in 3% formalin, and the […] vascular endothelial (VE)-cadherin (1:400, goat antihuman VE-cadherin; Santa Cruz Biotechnology, Santa Cruz, CA, USA; secondary antibody 1:8000, Alexa Fluor 488 F(ab′)2 rabbit antigoat IgG (H + L), Invitrogen, Darmstadt, Germany) and actin fibers (1:2000; phalloidin Alexa 546-labeled; Invitrogen) were stained to evaluate cell morphology. 4′,6-diamidino-2-phenylindole staining (Sigma-Aldrich) was used to visualize cell nuclei. The immunofluorescence of the cells was analyzed by confocal microscopy using an LSM 780 microscope with ZEN 2011 software (objective: Plan Apochromat × 63/1.40 oil; Carl Zeiss Microscopy, Jena, Germany).

hPMVEC = tested on: hPMVEC; set-up: method as in PMID 21421750; conditions: cited from earlier work
acute kidney injury = tested on: acute kidney injury; set-up: method as in PMID 26911791; conditions: cited from earlier work
mouse Tie2Fc receptor = biological target: T1, mouse Tie2Fc receptor (Mus musculus, UniProt Q02858); experiment: Tryptophan fluorescence spectroscopy, saturation binding of VT to mouse Tie2Fc
T1 construct: Fc (immunoglobulin Fc fusion partner); purchased R&D Systems
T1 sequence (Q02858 with tags, fused parts or gaps limits assumed): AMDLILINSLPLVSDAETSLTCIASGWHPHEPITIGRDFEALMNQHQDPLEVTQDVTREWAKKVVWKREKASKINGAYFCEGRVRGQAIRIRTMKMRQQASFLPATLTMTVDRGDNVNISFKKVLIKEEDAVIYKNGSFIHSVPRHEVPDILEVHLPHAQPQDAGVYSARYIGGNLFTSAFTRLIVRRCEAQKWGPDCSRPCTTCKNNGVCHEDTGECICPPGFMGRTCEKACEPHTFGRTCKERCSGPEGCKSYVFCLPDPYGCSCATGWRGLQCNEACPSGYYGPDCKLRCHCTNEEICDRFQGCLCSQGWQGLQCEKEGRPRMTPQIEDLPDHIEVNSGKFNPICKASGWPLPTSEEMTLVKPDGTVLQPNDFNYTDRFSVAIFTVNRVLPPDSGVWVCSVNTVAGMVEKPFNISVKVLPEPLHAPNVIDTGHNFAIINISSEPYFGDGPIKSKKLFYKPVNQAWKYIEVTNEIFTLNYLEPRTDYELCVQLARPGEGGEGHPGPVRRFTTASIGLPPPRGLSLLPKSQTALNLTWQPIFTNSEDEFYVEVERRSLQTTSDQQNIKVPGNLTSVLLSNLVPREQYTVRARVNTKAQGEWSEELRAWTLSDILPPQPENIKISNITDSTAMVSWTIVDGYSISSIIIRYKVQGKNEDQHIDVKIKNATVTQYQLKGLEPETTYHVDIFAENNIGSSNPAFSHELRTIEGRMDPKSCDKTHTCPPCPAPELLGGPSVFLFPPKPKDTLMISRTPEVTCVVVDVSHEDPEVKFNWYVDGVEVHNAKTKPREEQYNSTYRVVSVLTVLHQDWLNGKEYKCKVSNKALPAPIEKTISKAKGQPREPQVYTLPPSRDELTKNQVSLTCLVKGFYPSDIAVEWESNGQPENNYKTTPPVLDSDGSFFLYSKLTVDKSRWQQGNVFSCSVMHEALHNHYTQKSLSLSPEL
Experimental: Binding studies were carried out in 96 well plates (Brand-plates pureGrade reference 781607; BRAND GMBH + CO KG, Wertheim, Germany). Mouse Tie2Fc receptor and human immunoglobulin G (IgG) Fc were obtained from R&D Systems (Minneapolis, MN, USA). Dilutions were prepared in HyClone™ Dulbecco’s PBS (GE Healthcare Life Sciences, Mississauga, ON, Canada). The saturation binding curve was prepared with all ligand dilutions and receptors as 2× concentrations. Equal volumes of ligand and receptor were added to generate a final 1× concentration (500 nM Tie2Fc final concentration). Spectroscopic studies were performed on a SpectraMax M2 fluorometer (Molecular Devices, Sunnyvale, CA, USA). Measurements were taken at an excitation wavelength of 295 nm. Emission scans were set from 360 to 450 nm.
Saturation binding data (Fig. 1a–c) are presented as mean ± SEM and were calculated using normalized one-site specific binding and nonlinear regression. For the Tie2 phosphorylation analysis (Fig. 1d), one-way analysis of variance (with Dunnett’s post hoc multiple comparisons test) was used to compare treatment groups with the vehicle-treated group. All other experimental data are expressed as mean, mean + SEM, or mean ± SEM. Groups were compared using the Mann-Whitney U test followed by the Bonferroni-Holm correction, where indicated. p Values < 0.05 were considered significant. Analyses were performed using Prism version 6.00 software (GraphPad Software, La Jolla, CA, USA).

abdominal sepsis = tested on: abdominal sepsis; set-up: method as in 3 sources, ref 26 = [26]; PMID 22040774; doi:10.1186/cc10523; 26. Kümpers P Gueler F David S Slyke PV Dumont DJ Park JK Bockmeyer CL Parikh SM Pavenstadt H Haller H The synthetic Tie2 agonist peptide Vasculotide protects against vascular leakage and reduces mort ||| ref 25, 26 = [25]; PMID 21421750; doi:10.1152/ajplung.00459.2010; 25. David S Ghosh CC Kumpers P Shushakova N Van Slyke P Khankin EV Karumanchi SA Dumont D Parikh SM Effects of a synthetic PEG-ylated Tie-2 agonist peptide on endotoxemic lung injury and mortality Am || [26]; PMID 22040774; doi:10.1186/cc10523; 26. Kümpers P Gueler F David S Slyke PV Dumont DJ Park JK Bockmeyer CL Parikh SM Pavenstadt H Haller H The synthetic Tie2 agonist peptide Vasculotide protects against vascular leakage and reduces mort ||| ref 26 (Kümpers et al.); conditions: cited from earlier work
[2] = Body weight and temperature of Streptococcus pneumoniae-infected mice; conditions: VT i.v. (500 ng in Figure S2), 46 h p.i. in Figure S2, vs infected, PBS-treated
[3] = tested on: Streptococcus pneumoniae-infected mice; experiment: Blood leukocytes in Streptococcus pneumoniae-infected mice; conditions: VT 500 ng i.v.; 24 h and 48 h p.i.; n = 8
Experimental: (§1) For all experiments, female C57BL/6 N mice (8 to 10 weeks old, weighing 18 to 20 g; Charles River Laboratories, Sulzfeld, Germany) were used. Animals were housed under specific pathogen-free conditions under a 12–h/12-h light/dark cycle with free access to food and water.
Mice were anesthetized with ketamine (80 mg/kg) and xylazine (25 mg/kg) and transnasally inoculated with 5 × 10^6 colony-forming units (CFU) of S. pneumoniae (NCTC7978) in 20 μl of sterile PBS as described before [35]. Sham-infected control mice received 20 μl of sterile PBS. After 22 h, 34 h, and 46 h, body weight and rectal temperature were measured, and different dosages of VT (100, 200, or 500 ng in 100 μl of PBS) or PBS were intravenously injected into the tail vein. Twenty-four or forty-eight hours postinfection (p.i.), mice were anesthetized (160 mg/kg ketamine and 75 mg/kg xylazine) and exsanguinated. […] Subsequently, lungs were flushed, and BAL was performed. […] Blood leukocytes were quantified using a scil Vet ABC Hematology Analyzer (scil animal care company GmbH, Viernheim, Germany).

[4] = tested on: Streptococcus pneumoniae-infected mice; experiment: BALF leukocyte recruitment (FACS) in Streptococcus pneumoniae-infected mice; conditions: VT 500 ng i.v., 24 h and 48 h p.i., n = 8
Experimental: as §1
(§2) Mice were anesthetized with ketamine (80 mg/kg) and xylazine (25 mg/kg) and transnasally inoculated with 5 × 10^6 colony-forming units (CFU) of S. pneumoniae (NCTC7978) in 20 μl of sterile PBS as described before [35]. Sham-infected control mice received 20 μl of sterile PBS. After 22 h, 34 h, and 46 h, body weight and rectal temperature were measured, and different dosages of VT (100, 200, or 500 ng in 100 μl of PBS) or PBS were intravenously injected into the tail vein. Twenty-four or forty-eight hours postinfection (p.i.), mice were anesthetized (160 mg/kg ketamine and 75 mg/kg xylazine) and exsanguinated. […] Subsequently, lungs were flushed, and BAL was performed. To determine permeability, HSA (1 mg/75 μl) was intravenously infused 1 h before lung preparation, and the BALF/plasma ratio was calculated as described elsewhere [35]. […] Cytokines from BALF were measured with a multiplex assay (ProcartaPlex; eBioscience), and plasma levels of interleukin (IL)-6 (BD Biosciences) and KC (keratinocyte chemoattractant; R&D Systems) were quantified by ELISA.

[5] = tested on: murine lung endothelial cells (mLEC); experiment: Transcellular electrical resistance (ECIS) of murine lung endothelial cells; conditions: VT 2, 10, 50 ng/ml, 30 minutes pretreatment; PLY 0.75 μg/ml, 3 h; n = 4-7
Experimental: Briefly, mice were killed by an overdose of ketamine/xylazine. Lungs of four mice were pooled, minced, and digested by dispase (20 ml, 5 U/ml; BD Biosciences, Heidelberg, Germany) and DNase (20 ml, 0.5 mg/ml; AppliChem GmbH, Darmstadt, Germany). The homogenate was filtered, collected by centrifugation (300 × g), and washed twice, and the resulting cell suspension was incubated with antimouse VE-cadherin antibody (rat antimouse CD 144; BD Pharmingen, San Diego, CA, USA)-coated magnetic beads (sheep antirat IgG DynaBeads; Invitrogen GmbH, Karlsruhe, Germany) for positive isolation with the DynaMag-Spin magnet system (Invitrogen). The isolated cells were resuspended in Endothelial Cell Growth Medium MV2 (PromoCell), seeded onto fibronectin-coated (Sigma-Aldrich) culture dishes (diameter 35 mm), and grown to a confluent monolayer in 3–4 days. Then, cells were split after trypsinization [37], seeded and grown to confluence on fibronectin-coated evaporated gold microelectrodes (eight-well array with ten electrodes per well; ibidi GmbH, Martinsried, Germany) connected to an electric cell-substrate impedance sensing (ECIS) system (Applied Biophysics, Troy, NY, USA) [38] for continuous monitoring of transcellular electrical resistance (TER). Cells were pretreated with VT (2, 10, and 50 ng/ml) or PBS for 30 minutes and then stimulated with PLY (0.75 μg/ml) or PBS for 3 h.

[6] = tested on: Streptococcus pneumoniae-infected mice; experiment: BALF cytokines (multiplex assay) in Streptococcus pneumoniae-infected mice; conditions: VT 500 ng i.v., n = 8
Experimental: as §1, §2

Vasculotide [VT]
PLY-induced lung hyperpermeability (HSA in BALF) (mouse lungs): decreased PLY-induced pulmonary permeability; also recorded: significantly decreased hyperpermeability of mouse lungs; also recorded: dose-dependently decreased hyperpermeability of mouse lungs | monolayer stabilization (gap formation, stress fibers, cell loss) after LPS or PLY ([1]; 90 minutes pretreatment, LPS 0.1 μg/ml or PLY 0.25, 0.5, 0.75 μg/ml for 30 minutes, three independent experiments): stabilized cell monolayers, protected from gap formation, and reduced stress fibers as well as cell loss; also recorded: stabilized the cell monolayer, avoided gap formation, and reduced stress fibers and cell loss from culture dishes | effect on unstimulated hPMVEC monolayer ([1]; 90 minutes, no LPS or PLY): no effect of VT pretreatment was observed; also recorded: intact monolayers with tight intercellular contacts and thin actin fibers | protection of endothelial cells from LPS-induced disruption (hPMVEC): protects hPMVEC after LPS stimulation; also recorded: protect endothelial cells from lipopolysaccharide (LPS)-induced disruption | barrier disruption in acute kidney injury (acute kidney injury): protective effect; also recorded: diminish barrier disruption | saturability of fluorescence intensity with mouse Tie2Fc (mouse Tie2Fc receptor; 500 nM Tie2Fc): saturable | intrinsic fluorescence intensity / binding with mouse Tie2Fc (mouse Tie2Fc receptor; 500 nM Tie2Fc, excitation 295 nm): dose-dependent binding; also recorded: dose-dependent increase in intrinsic fluorescence intensity | Kd (mouse Tie2Fc receptor; 95% confidence interval, 500 nM Tie2Fc, one-site specific binding, read-out: 95% CI of the dissociation constant, mouse Tie2Fc): 2.92 to 67 nM | dissociation constant, in words (mouse Tie2Fc receptor; murine Tie2 receptor, discussion): in the low nanomolar range | Kd (mouse Tie2Fc receptor; tryptophan fluorescence, excitation 295 nm, emission 360-450 nm, 500 nM Tie2Fc, PBS, normalized one-site specific binding, nonlinear regression, read-out: dissociation constant of the normalized specific binding of VT to mouse Tie2Fc): 35 nM | protective effect in murine endotoxemia and abdominal sepsis (sepsis part) (abdominal sepsis; abdominal sepsis): protective effect | barrier disruption in experimental sepsis (abdominal sepsis): diminish barrier disruption | local and systemic inflammatory markers after abdominal sepsis (abdominal sepsis; treatment started 2 h after cecal ligation and puncture, ref 26 (Kümpers et al.)): reductions in local and systemic inflammatory markers | body weight [2]: did not influence; also recorded: not affected | body temperature ([2]; rectal): did not influence; also recorded: not affected | blood leukocytes [3]: unaffected; also recorded: did not differ | pulmonary leukocyte recruitment (BALF) [4]: did not significantly reduce; also recorded: not significantly affected; also recorded: not significantly reduced | PLY-induced TER decrease [5]: attenuated the PLY-induced TER decrease in a dose-dependent manner | BALF cytokine concentrations (except IL-12p40) ([6]; 24 h and 48 h p.i.): not significantly affected; also recorded: not significantly reduced | IL-12p40 levels in BALF, 48 h p.i. ([6]; 48 h p.i.): reduced; also recorded: decreased

From PMC5683375, “Vasculotide reduces pulmonary hyperpermeability in experimental pneumococcal pneumonia” (Critical Care, 2017)
